Data taken from patent US20240009165A1, “GRISEOFULVIN AS AN ADJUNCT DRUG FOR THE TREATMENT OF CEREBRAL AND SEVERE MALARIA” (priority 2020, published 2024).

Experiments:
P. berghei ANKA [1] = assay: Cerebral malaria (CM) protection and mortality of PbWT-infected mice treated with griseofulvin; format: in vivo
Excerpt: The present invention evaluated the potential of griseofulvin in preventing CM and treated WT-infected C57BL/6 mice from day 4 when the blood parasitemia was around 2%, and examined for CM pathogenesis. […] While ˜80% of the control mice succumbed to CM within day 10, more than 80% of the griseofulvin-treated mice were protected from CM. […] While the anemia mortality in CM-escaped control mice occurred within day 17, more than 80% of the griseofulvin-treated mice could survive beyond day 20 with almost 50% of them surviving even beyond day 24. […] To confirm that the CM protection is due to inhibition of parasite heme synthesis, the present invention analyzed heme synthesis in griseofulvin-treated and -untreated WT parasites by incubating the in vivo-treated pRBCs in vitro with ^14C-ALA (committed precursor of heme synthesis) for 9 h. There was around 60% decrease in the ^14C-labelling of free heme in griseofulvin-treated parasites. […] As observed for the KO parasites, the total Hz content in the griseofulvin-treated parasites was around 50-60% less when compared with untreated parasites and there was also close to 60% decrease in the free heme levels.
(§1) Routine propagation of P. berghei in mice and CM experiments. P. berghei ANKA WT and KO parasites were propagated in C57BL/6 male/female mice of 7-8 weeks old. Peripheral blood parasitemia was monitored by performing light microscopy for Giemsa stained thin blood smears prepared from tail vein blood. When the blood parasitemia was around 10%, 10^5 P. berghei ANKA WT or 10^5/10^7 ALAS/FC KO parasites were collected and injected intraperitoneally in 7-8 weeks old C57BL/6 male/female naïve mice to initiate CM experiments. Growth curve analysis was carried out by monitoring the blood parasitemia. The development and progression of ECM were monitored by examining RMCBS for neurological symptoms. To assess BBB integrity, Evans blue uptake assays were carried out by injecting 200 μl of 2% Evans blue in PBS intravenously and examining the extravasation of dye after one hour in the brain of the infected mice that were transcardially perfused with PBS. The extent of BBB damage was quantified by incubating the brain samples in formamide at 37° C. for 48 h, extracting the Evans blue and measuring the absorbance at 620 nm.
Griseofulvin treatment in mice. Griseofulvin was prepared by dissolving 1 or 2 mg in 40 μl DMSO and then making up the volume to 200 μl with 10% solutol HS 15 in saline. The mixture was vortexed thoroughly for 10 min to form an emulsion and injected intraperitoneally into the mice. All single dose injections were carried out at 06:00 h and double dose injections were carried out at 06:00 h and 18:00 h for the respective days. […]

P. berghei ANKA [2] = assay: Growth curve analysis (peripheral blood parasitemia) in treated mice; format: in vivo; details: 2 mg dose per day on day 4, 5, 6, 7 and 8; C57BL/6 mice
Excerpt: The present invention evaluated the potential of griseofulvin in preventing CM and treated WT-infected C57BL/6 mice from day 4 when the blood parasitemia was around 2%, and examined for CM pathogenesis. […] While ˜80% of the control mice succumbed to CM within day 10, more than 80% of the griseofulvin-treated mice were protected from CM. […] While the anemia mortality in CM-escaped control mice occurred within day 17, more than 80% of the griseofulvin-treated mice could survive beyond day 20 with almost 50% of them surviving even beyond day 24. […] To confirm that the CM protection is due to inhibition of parasite heme synthesis, the present invention analyzed heme synthesis in griseofulvin-treated and -untreated WT parasites by incubating the in vivo-treated pRBCs in vitro with ^14C-ALA (committed precursor of heme synthesis) for 9 h. […]
Routine propagation of P. berghei in mice and CM experiments. […] Peripheral blood parasitemia was monitored by performing light microscopy for Giemsa stained thin blood smears prepared from tail vein blood. […] The development and progression of ECM were monitored by examining RMCBS for neurological symptoms. […] The extent of BBB damage was quantified by incubating the brain samples in formamide at 37° C. for 48 h, extracting the Evans blue and measuring the absorbance at 620 nm. […]

parasite heme synthesis = assay: 14C-ALA labelling of free heme in in vivo-treated pRBCs; format: cell-based, P. berghei; details: in vivo-treated pRBCs incubated in vitro with 14C-ALA for 9 h; vs untreated WT parasites
Excerpt: The present invention evaluated the potential of griseofulvin in preventing CM and treated WT-infected C57BL/6 mice from day 4 when the blood parasitemia was around 2%, and examined for CM pathogenesis. […] While ˜80% of the control mice succumbed to CM within day 10, more than 80% of the griseofulvin-treated mice were protected from CM. […] While the anemia mortality in CM-escaped control mice occurred within day 17, more than 80% of the griseofulvin-treated mice could survive beyond day 20 with almost 50% of them surviving even beyond day 24. […]
Labelling studies with ^14C-ALA. […] For ^14C-ALA labelling, blood samples were collected from griseofulvin treated and control WT-infected mice around 16:00 h and the labelling was carried out for 9 h at a radioactivity of […]. […] The upper phase was separated, dried under nitrogen stream, dissolved in methanol and analysed by TLC on silica gel using the mobile phase 2,6-lutidine and water (5:3 v/v) in ammonia atmosphere. The intensity of radiolabelling was scanned using Biomolecular Imager by exposing the TLC sheets to phosphorimager screen and the radioactive counts were measured.

P. berghei ANKA [3] = assay: Evans blue extravasation in the brain (BBB integrity); format: in vivo; details: griseofulvin-treated WT-infected mice; brain on day 8 post-infection
Excerpt: as §1

P. berghei ANKA [4] = assay: Histochemical and immunofluorescence analyses of brain sections; format: in vivo; details: griseofulvin-treated WT-infected mice
Experimental: Histological and immunofluorescence analyses of cerebral pathology in the brain of infected mice. For H&E staining to assess vascular blockage, hemorrhages and demyelination, brain samples were fixed with formalin for 72 hours at room temperature. After dehydrating with ethanol and treating with xylene, paraffin embedded blocks were made and sections of 7 μm thickness were prepared using rotary microtome. The sections were then processed and stained with H&E using standard protocols. Immunohistochemical analysis of IgG extravasation in the brain sections was carried out as described. Brain sections of 30 μm thickness was antigen retrieved by treating them at 95° C. for 30 min in sodium citrate buffer pH 6.0, followed by blocking with 3% H2O2 at room temperature for 30 min to prevent endogenous peroxidase activity. The sections were then incubated with HRP-conjugated goat anti-mouse IgG at 1:250 dilution in PBS containing 0.3% Triton X-100 and 0.1% BSA, followed by developing with diaminobenzidine tetrahydrochloride and counterstaining with hematoxilin. Immunofluorescence analysis of brain sections for parasite sequestration was carried out by fixing the brain samples in 4% paraformaldehyde in PBS containing 20% sucrose for 24 h at 4° C. and cryoprotecting them for 48 h in PBS containing 20% sucrose. Coronal sections of 30 μm thickness was prepared using cryostat microtome and antigen retrieval was carried out by treating them at 95° C. for 30 min in sodium citrate buffer pH 9.0. After blocking with 1% BSA, the sections were incubated with anti-CD31 mouse monoclonal antibody conjugated with Alexa Fluor 594 and anti-PbGAPDH rabbit polyclonal serum or anti-mouse CD3 rat monoclonal antibody for 16 h at 4° C. The sections were then treated with FITC-conjugated donkey anti-rabbit IgG or FITC-conjugated goat anti-rat IgG (1:200 dilution), followed by 4′,6-diamidino-2-phenylindole (DAPI) staining. Anti-mouse β-APP rabbit polyclonal antibody was used in 1:200 dilution.

hemozoin (Hz) formation = assay: Hemozoin and free heme estimation in parasites; format: in vivo, P. berghei
Experimental: Heme, Hz, hemoglobin and hemopexin estimations. Free heme levels in the plasma samples of WT- and KO-infected mice were quantified using Hemin colorimetric assays. The assay is specific for free heme and it utilizes peroxidase activity of hemin to facilitate the conversion of a colorless probe to a strongly colored compound with absorbance at 570 nm. The quantification of free heme in the parasite lysates was carried out by resuspending the parasite pellets in 5 volumes of hypotonic lysis buffer containing 5 mM Tris pH 7.5 with protease inhibitors and incubating them in ice for 30 min. The lysates were then centrifuged at 20,000 g for 20 min, 4° C., and the supernatants obtained were used for free heme estimation as mentioned above for the plasma samples. The Hz content of the WT and KO parasite pellets was estimated as described. The parasite pellet was resuspended in 1 ml of 100 mM sodium acetate buffer, pH 5.0 and left at 37° C. for overnight, followed by centrifugation at 10,000 g for 5 min. The resultant pellet was resuspended in 100 mM Tris buffer pH 8.0 containing 2.5% SDS and incubated at 37° C. for 30 min, followed by centrifugation at 10,000 g for 5 min. The pellet obtained was washed once with 100 mM alkaline bicarbonate pH 9.2 and then with distilled water. The final Hz pellet was dissolved in 100 mM NaOH containing 2.5% SDS, and the absorbance was measured at 405 nm. The supernatants of sodium acetate and Tris SDS steps were collected to estimate the protein content by Micro BCA protein assay kit and heme content of the Hz was expressed per mg of total protein. […] After repeating this step thrice, the pellets were solubilized in 100 mM NaOH containing 2% SDS and 3 mM EDTA, and the absorbance was measured at 405 nm. In parallel, the parasite load in the organs was examined by quantitative PCR (qPCR) analysis carried out with Pb18SrRNA primers for the total RNA isolated from 30 mg tissue of the organs. […] Hemoglobin and hemopexin levels in the plasma samples of WT- and KO-infected mice were measured by ELISA.

P. berghei ANKA [5] = assay: Plasma heme, hemopexin and hemoglobin estimation in infected mice; format: in vivo; details: griseofulvin-treated WT-infected mice
Experimental: Heme, Hz, hemoglobin and hemopexin estimations. Free heme levels in the plasma samples of WT- and KO-infected mice were quantified using Hemin colorimetric assays. The assay is specific for free heme and it utilizes peroxidase activity of hemin to facilitate the conversion of a colorless probe to a strongly colored compound with absorbance at 570 nm. The quantification of free heme in the parasite lysates was carried out by resuspending the parasite pellets in 5 volumes of hypotonic lysis buffer containing 5 mM Tris pH 7.5 with protease inhibitors and incubating them in ice for 30 min. The lysates were then centrifuged at 20,000 g for 20 min, 4° C., and the supernatants obtained were used for free heme estimation as mentioned above for the plasma samples. The Hz content of the WT and KO parasite pellets was estimated as described. The parasite pellet was resuspended in 1 ml of 100 mM sodium acetate buffer, pH 5.0 and left at 37° C. for overnight, followed by centrifugation at 10,000 g for 5 min. The resultant pellet was resuspended in 100 mM Tris buffer pH 8.0 containing 2.5% SDS and incubated at 37° C. for 30 min, followed by centrifugation at 10,000 g for 5 min. The pellet obtained was washed once with 100 mM alkaline bicarbonate pH 9.2 and then with distilled water. The final Hz pellet was dissolved in 100 mM NaOH containing 2.5% SDS, and the absorbance was measured at 405 nm. The supernatants of sodium acetate and Tris SDS steps were collected to estimate the protein content by Micro BCA protein assay kit and heme content of the Hz was expressed per mg of total protein. To estimate the Hz content in the spleen and liver of the WT- and KO-infected mice, 50 mg tissue of the respective organs was homogenized in 50 mM Tris pH 8.0 containing 50 mM NaCl, 5 mM CaCl2 and 1% Triton X-100, and incubated for 12 h at 37° C. in the presence of proteinase K. The lysates were sonicated and centrifuged at 15,000 g for 30 min. The pellets obtained were resuspended with 100 mM sodium bicarbonate containing 2% SDS and sonicated, followed by centrifugation at 15,000 g for 15 min. After repeating this step thrice, the pellets were solubilized in 100 mM NaOH containing 2% SDS and 3 mM EDTA, and the absorbance was measured at 405 nm. In parallel, the parasite load in the organs was examined by quantitative PCR (qPCR) analysis carried out with Pb18SrRNA primers for the total RNA isolated from 30 mg tissue of the organs. After normalizing with respect to the parasite load, the total heme content of the Hz isolated was expressed per mg weight of the organ. Hemoglobin and hemopexin levels in the plasma samples of WT- and KO-infected mice were measured by ELISA.

Plasmodium falciparum = details: humans infected with Plasmodium falciparum; reference (34); cited from earlier work
P. berghei ANKA [6] = assay: α,β-arteether alone or with griseofulvin in preventing CM in mice; format: in vivo
Experimental: Griseofulvin treatment in mice. Griseofulvin was prepared by dissolving 1 or 2 mg in 40 μl DMSO and then making up the volume to 200 μl with 10% solutol HS 15 in saline. The mixture was vortexed thoroughly for 10 min to form an emulsion and injected intraperitoneally into the mice. All single dose injections were carried out at 06:00 h and double dose injections were carried out at 06:00 h and 18:00 h for the respective days. Control mice were injected with the solvent. α,β-arteether (E MAL) was administered intramuscularly. For experiments involving the combination of α,β-arteether and griseofulvin, α,β-arteether was administered intramuscularly at 06:00 h on day 6, followed by two doses of griseofulvin at 24 h interval (at 09:00 h on day 6 and 7).

[7] = griseofulvin-treated WT parasites vs untreated

For `COC1=CC(=O)C[C@@H](C)[C@]12Oc1c(Cl)c(OC)cc(OC)c1C2=O` [griseofulvin], the “mice protected from CM” value (P. berghei ANKA [1]; WT-infected C57BL/6 mice, single dose of 2 mg/day i.p. from day 4 until day 8, ~80% of control mice succumbed to CM within day 10) was “more than 80%”, the “delay in mortality due to anemia” value (P. berghei ANKA [1]; griseofulvin-treated WT-infected C57BL/6 mice vs CM-escaped control mice) was “significant delay” and the “mice surviving beyond day 24” value (P. berghei ANKA [1]; griseofulvin-treated WT-infected mice) was “around 50%”. For the same compound, the “mice surviving beyond day 20” value (P. berghei ANKA [1]; griseofulvin-treated WT-infected mice, anemia mortality in CM-escaped control mice within day 17) was “more than 80%”, the “growth curves of WT parasites in treated and untreated mice” value (P. berghei ANKA [2]) was “very much comparable” and the “decrease in 14C-labelling of free heme” value (parasite heme synthesis) was “around 60%”. The “Evans blue extravasation in the brain” value (P. berghei ANKA [3]) was “less Evans blue extravasation”, the “intracerebral hemorrhages in brain sections” value (P. berghei ANKA [4]; H&E) was “absence of intracerebral hemorrhages” and the “accumulation of CD3+ T cells in the cerebral vasculature” value (P. berghei ANKA [4]; immunofluorescence) was “lack of accumulation”. For the same compound, the “accumulation of parasites in the cerebral vasculature” value (P. berghei ANKA [4]; immunofluorescence) was “lack of accumulation”, the “Hz content by light microscopy” value (hemozoin (Hz) formation; Giemsa-stained peripheral smears and paraformaldehyde-fixed pRBCs of treated mice) was “less Hz content” and the “decrease in free heme levels in parasites” value (hemozoin (Hz) formation; [7]) was “around 60%”. For the same compound, the “total Hz content, less than untreated parasites” value (hemozoin (Hz) formation; [7]) was 50-60%, the plasma heme/hemopexin ratio (P. berghei ANKA [5]) was “comparable to that of the KO-infected mice” and the “plasma level of Hb” value (P. berghei ANKA [5]) was “comparable to that of the KO-infected mice”. For the same compound, the “plasma level of heme” value (P. berghei ANKA [5]) was “comparable to that of the KO-infected mice”, the “plasma level of hemopexin” value (P. berghei ANKA [5]) was “comparable to that of the KO-infected mice” and the “in vivo parasite growth in humans” value (Plasmodium falciparum) was “did not inhibit the in vivo parasite growth”.

In the case of `CCO[C@H]1O[C@@H]2O[C@@]3(C)CC[C@H]4[C@H](C)CC[C@@H]([C@H]1C)[C@@]24OO3` [α,β-arteether], the “peripheral parasitemia in blood smears” value (P. berghei ANKA [6]; single intramuscular dose of 0.25 mg/mouse on day 6) is reported as “clearance” and the “WT-infected mice developing CM” value (P. berghei ANKA [6]; single intramuscular dose of 0.25 mg/mouse on day 6, parasitemia around 10%) is reported as 60-70%.
